Laboratory results reported in patent US9409975B2, “Antibody binding microbial heparin binding motif to retard or prevent microbial biofilm formation on implanted medical devices” (priority 2012, dated 2016).
Entries after “also recorded” stand apart in the source; their conditions may differ.

Tested on: Candida albicans BWP17 wt planktonic growth
Assay: Growth curves and doubling times in presence or absence of soluble heparin
Format: cell-based
Conditions: 100 units/ml heparin
Procedure: For growth curves in the presence or absence of soluble heparin, a single colony of BWP17 wt was inoculated into 3 ml YPD medium and incubated overnight at 30° C. with shaking at 225 rpm. Overnight cultures were diluted to an OD600 of 0.1 in 5 ml of YPD, RPMI-MOPS, RPMI-HEPES or CSM in a 50 ml conical polypropylene tube. Preservative-free pharmaceutical heparin (1000 units/ml) was added to yield a final concentration of 100 units/ml in the heparin-treated samples. Cultures were grown at 30° C. with shaking and OD600 measured periodically. Doubling times (td) were calculated based on the equation td=ln 2/μ (μ=specific growth rate (48). One hundred units/ml heparin, the concentration recommended to prevent clotting of central venous catheters (20), had no effect on doubling times of planktonic yeast cells grown in YPD, RPMI-HEPES, RPMI-MOPS or CSM, as shown in FIGS. 2A and 2B.
A single copy of Int1, including 1450 bp upstream and 548 bp downstream from the Int1 open reading frame (www.candidagenome.org, Assembly 21), was integrated into the hisG locus of the int1−/− strain VBIDM2 (54) to produce the reconstituted strain KO509. Briefly, a copy of Int1 was generated by PCR, using primers 1 and 2 with BWP17 wt DNA as template and cloned into the SacI/MluI sites of pGEMHIS (51) to create pKO509. pKO509 was digested with SwaI and transformed into VBIDM2 to create the reconstituted strain KO509. PCR-mediated overlap extension mutagenesis (55) was used to produce copies of Int1 mutated at putative heparin binding domains. Briefly, primer pairs 1+3 and 2+4 (or 1+5 and 2+6) were used to produce two overlapping fragments of INT1 in which putative heparin binding domains were mutated (FKKRFFKL (SEQ ID NO: 2)→FKAAFFKL (SEQ ID NO: 53) or KQKKHQ (SEQ ID NO: 64)→KQAAHQ (SEQ ID NO: 63)), and a full length mutated sequence generated in a third […] using primers 1+2 with the fragments as template. […] Percent binding of each mutant to heparin in the ELISA assay was compared to the wild type according to the formula [Absorbance595 mutant]/[Absorbance595 wild type]×100.

heparin
growth curves in presence or absence of soluble heparin: identical | doubling times of wild type, Δint1 mutant, INT1 reintegrant and Motif 1, Motif 4, Motifs 1 and 4 reintegrants with and without heparin (30° C., RPMI-HEPES): no difference | effect on doubling times of planktonic yeast cells (30° C., YPD, RPMI-HEPES, RPMI-MOPS or CSM): no effect; also recorded: identical
